Reference: the NIST ThermoML archive (doi:10.1021/je030107c)

Experiments:
[1] = refractive index (Na D-line) (dimensionless); xn = mol fraction of the nth substance listed; settings: 101.3 kPa, Liquid, Standard Abbe refractometry
[2] = xn = mol fraction of the nth substance listed; settings: 101.3 kPa, Liquid; for viscosity: Capillary tube (Ostwald / Ubbelohde) method; for speed of sound: Linear variable-path acoustic interferometer; for mass density: Pycnometric method

C1COCCO1 [1,4-dioxane] + CCCCCC
Settings	mass density, 298.15 K [kg/m3]	mass density, 303.15 K [kg/m3]	mass density, 308.15 K [kg/m3]	refractive index, 298.15 K	refractive index, 303.15 K	refractive index, 308.15 K	speed of sound, 298.15 K [m/s]	viscosity, 298.15 K [mPa·s]	viscosity, 303.15 K [mPa·s]	viscosity, 308.15 K [mPa·s]
[1], x1 = 0.1135	–	–	–	1.3758	1.3728	1.37	–	–	–	–
[1], x1 = 0.2057	–	–	–	1.3787	1.3756	1.3726	–	–	–	–
[1], x1 = 0.3099	–	–	–	1.3824	1.3795	1.3767	–	–	–	–
[1], x1 = 0.4032	–	–	–	1.3864	1.3838	1.3814	–	–	–	–
[1], x1 = 0.501	–	–	–	1.3906	1.3878	1.385	–	–	–	–
[1], x1 = 0.6028	–	–	–	1.3954	1.3928	1.3903	–	–	–	–
[1], x1 = 0.7006	–	–	–	1.4014	1.3986	1.3959	–	–	–	–
[1], x1 = 0.7991	–	–	–	1.4078	1.4048	1.4017	–	–	–	–
[1], x1 = 0.8962	–	–	–	1.414	1.4119	1.4098	–	–	–	–
[1], x1 = 1	–	–	–	1.4201	1.417	1.4143	–	–	–	–
[2], x1 = 0.1135	682	677.3	672.5	–	–	–	1087	0.333	0.319	0.304
[2], x1 = 0.2057	706.4	701.4	696.5	–	–	–	1099	0.357	0.34	0.323
[2], x1 = 0.3099	736.2	731.2	726.1	–	–	–	1116	0.391	0.372	0.353
[2], x1 = 0.4032	765.7	760.5	755.3	–	–	–	1132	0.429	0.408	0.386
[2], x1 = 0.501	799.6	794.3	788.9	–	–	–	1154	0.482	0.455	0.429
[2], x1 = 0.6028	838.1	832.7	827.2	–	–	–	1185	0.549	0.517	0.485
[2], x1 = 0.7006	878.7	873.3	868	–	–	–	1220	0.634	0.596	0.557
[2], x1 = 0.7991	924	918.3	912.4	–	–	–	1257	0.753	0.705	0.656
[2], x1 = 0.8962	972.1	966.4	960.8	–	–	–	1303	0.912	0.849	0.787
[2], x1 = 1	1027.6	1021.9	1016.2	–	–	–	1347	1.166	1.069	0.984
